Results on eight molecules are retold here after ChEMBL document CHEMBL3751752, “Total synthesis of a biotinylated rocaglate: Selective targeting of the translation factors eIF4AI/II” (Bioorg Med Chem Lett, 2016).

Calls of active or inactive are those of the source. The rule behind the calls is not given here.

The target in test [1] is Eukaryotic initiation factor 4A-I (Homo sapiens) (UniProt P60842). The experiment in a line: Inhibition of e1F4A1 (unknown origin) in rabbit reticulocyte assessed as capped-dependent translation incubated for 1 hr by dual glo luciferase assay.
Chain of Eukaryotic initiation factor 4A-I (Homo sapiens) (P60842 whole entry): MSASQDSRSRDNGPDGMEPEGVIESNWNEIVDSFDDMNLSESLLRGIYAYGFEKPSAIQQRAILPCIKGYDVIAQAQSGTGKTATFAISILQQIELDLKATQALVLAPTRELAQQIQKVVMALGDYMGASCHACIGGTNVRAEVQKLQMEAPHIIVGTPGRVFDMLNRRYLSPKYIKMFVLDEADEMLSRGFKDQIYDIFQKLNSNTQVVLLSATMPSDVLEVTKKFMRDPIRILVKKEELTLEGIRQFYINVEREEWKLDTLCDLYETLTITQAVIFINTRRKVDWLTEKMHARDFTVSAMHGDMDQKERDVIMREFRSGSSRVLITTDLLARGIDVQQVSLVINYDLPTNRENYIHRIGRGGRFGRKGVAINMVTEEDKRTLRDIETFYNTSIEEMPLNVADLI
Test [2] has as its target Eukaryotic initiation factor 4A-I (Mus musculus) (UniProt P60843). The experiment in a line: Binding affinity to eIF4A1 in mouse embryonic fibroblasts at 20 uM by streptavidin pulldown assay.
In test [3] the target is Eukaryotic initiation factor 4A-II (Mus musculus) (UniProt P10630). The experiment in a line: Binding affinity to eIF4A2 in mouse embryonic fibroblasts at 20 uM by streptavidin pulldown assay.
Chain of Eukaryotic initiation factor 4A-II (Mus musculus) (P10630 whole entry): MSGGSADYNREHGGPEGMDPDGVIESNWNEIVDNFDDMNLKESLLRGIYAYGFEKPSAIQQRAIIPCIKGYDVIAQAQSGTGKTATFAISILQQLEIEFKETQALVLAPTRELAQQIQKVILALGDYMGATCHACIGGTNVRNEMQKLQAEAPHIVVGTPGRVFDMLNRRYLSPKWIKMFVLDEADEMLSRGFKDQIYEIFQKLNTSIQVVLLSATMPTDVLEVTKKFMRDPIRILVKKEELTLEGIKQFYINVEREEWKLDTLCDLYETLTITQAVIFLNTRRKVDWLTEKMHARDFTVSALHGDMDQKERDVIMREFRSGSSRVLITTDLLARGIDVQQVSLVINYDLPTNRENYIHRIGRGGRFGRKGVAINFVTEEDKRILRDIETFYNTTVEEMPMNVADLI
Test [4] concerns the target T1, Prohibitin 1 (Mus musculus) (UniProt P67778).
T1 sequence (whole entry): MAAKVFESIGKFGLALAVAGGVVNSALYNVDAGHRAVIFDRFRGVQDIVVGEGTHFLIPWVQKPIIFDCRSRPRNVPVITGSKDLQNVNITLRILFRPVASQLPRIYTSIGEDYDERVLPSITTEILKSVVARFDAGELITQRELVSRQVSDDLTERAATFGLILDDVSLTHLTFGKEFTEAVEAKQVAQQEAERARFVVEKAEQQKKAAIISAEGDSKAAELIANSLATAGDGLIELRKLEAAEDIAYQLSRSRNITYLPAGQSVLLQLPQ
Description: Binding affinity to prohibitin in mouse embryonic fibroblasts by Western blot method.

Test [5] concerns the target ATP-dependent RNA helicase DDX3X (Mus musculus) (UniProt Q62167). The experiment in a line: Binding affinity to DDX3 in mouse embryonic fibroblasts by Western blot method. For orientation: Immunoblotting shows a protein as a band on a membrane.
Test [6] deals with Eukaryotic initiation factor 4A-I (Mus musculus) (UniProt P60843). The experiment in a line: Binding affinity to eIF4A1 in mouse embryonic fibroblasts by Western blot method.
Chain of Eukaryotic initiation factor 4A-I (Mus musculus) (P60843 whole entry): as the sequence (P60842 whole entry) above
Test [7] deals with Eukaryotic initiation factor 4A-II (Mus musculus) (UniProt P10630). Description: Binding affinity to eIF4A2 in mouse embryonic fibroblasts by Western blot method.
In test [8] the target is Eukaryotic initiation factor 4A-III (Mus musculus) (UniProt Q91VC3). Description: Binding affinity to eIF4A3 in mouse embryonic fibroblasts by Western blot method.
Chain of Eukaryotic initiation factor 4A-III (Mus musculus) (Q91VC3 whole entry): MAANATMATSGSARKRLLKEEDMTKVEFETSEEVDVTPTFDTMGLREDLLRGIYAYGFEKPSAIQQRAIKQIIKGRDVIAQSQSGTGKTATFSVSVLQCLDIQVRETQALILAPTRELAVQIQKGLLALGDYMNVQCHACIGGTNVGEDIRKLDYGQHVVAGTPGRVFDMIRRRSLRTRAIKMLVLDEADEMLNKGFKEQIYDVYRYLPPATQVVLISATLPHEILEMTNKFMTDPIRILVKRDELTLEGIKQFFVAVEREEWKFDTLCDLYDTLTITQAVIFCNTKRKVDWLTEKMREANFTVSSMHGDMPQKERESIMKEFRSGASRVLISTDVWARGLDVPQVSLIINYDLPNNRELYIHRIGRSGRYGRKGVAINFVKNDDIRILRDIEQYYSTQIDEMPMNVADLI
Test [9] concerns the target Eukaryotic translation initiation factor 4E (Mus musculus) (UniProt P63073). Description: Binding affinity to eIF4E in mouse embryonic fibroblasts by Western blot method.

Chain of Eukaryotic translation initiation factor 4E (Mus musculus) (P63073 whole entry): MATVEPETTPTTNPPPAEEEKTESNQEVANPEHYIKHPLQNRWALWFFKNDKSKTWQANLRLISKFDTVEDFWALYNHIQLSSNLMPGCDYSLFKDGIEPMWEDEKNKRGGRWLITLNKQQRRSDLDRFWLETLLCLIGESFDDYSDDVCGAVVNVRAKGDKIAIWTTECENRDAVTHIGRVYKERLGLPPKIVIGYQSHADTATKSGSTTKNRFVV
Chain of ATP-dependent RNA helicase DDX3X (Mus musculus) (Q62167 whole entry): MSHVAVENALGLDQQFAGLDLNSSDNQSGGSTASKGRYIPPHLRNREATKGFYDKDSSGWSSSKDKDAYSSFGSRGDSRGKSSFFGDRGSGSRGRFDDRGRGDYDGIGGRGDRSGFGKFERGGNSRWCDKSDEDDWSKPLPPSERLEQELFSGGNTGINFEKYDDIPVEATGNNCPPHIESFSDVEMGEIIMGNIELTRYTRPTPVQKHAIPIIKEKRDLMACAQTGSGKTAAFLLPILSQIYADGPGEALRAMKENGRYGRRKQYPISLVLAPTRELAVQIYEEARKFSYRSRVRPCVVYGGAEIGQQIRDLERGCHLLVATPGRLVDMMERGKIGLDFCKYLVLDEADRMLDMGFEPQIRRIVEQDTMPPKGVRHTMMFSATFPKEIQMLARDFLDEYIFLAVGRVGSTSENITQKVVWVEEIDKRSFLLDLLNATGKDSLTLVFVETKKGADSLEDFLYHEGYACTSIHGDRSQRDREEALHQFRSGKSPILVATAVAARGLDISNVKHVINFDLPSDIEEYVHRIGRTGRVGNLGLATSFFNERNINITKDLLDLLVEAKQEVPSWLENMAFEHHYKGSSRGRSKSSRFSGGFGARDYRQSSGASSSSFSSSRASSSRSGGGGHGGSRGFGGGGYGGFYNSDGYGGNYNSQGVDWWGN

For `C#CCNC(=O)[C@H]1[C@@H](O)[C@@]2(O)c3c(OC)cc(OC)cc3O[C@@]2(c2ccc(OC)cc2)[C@@H]1c1ccccc1`, in [1], the inhibition result is “Active”.
For `COC(=O)[C@H]1[C@@H](O)[C@@]2(O)c3c(OC)cc(O[C@@H]4O[C@@H]([C@@H](O)CO)CO[C@H]4OC)cc3O[C@@]2(c2ccc(OC)cc2)[C@@H]1c1ccccc1`, the inhibition result in test [1] was “Active”. Further, the outcome in [2] and in test [3] was Active.
Regarding `COc1ccc([C@@]23Oc4cc(OC)cc(OC)c4[C@]2(O)[C@H](O)[C@H](C(=O)NCc2cn(CCCOCCOCCOCCCNC(=O)CCCC[C@@H]4SC[C@@H]5NC(=O)N[C@@H]54)nn2)[C@H]3c2ccccc2)cc1`, the result in test [4], in test [5], in test [8] and in test [9] was inactive. Besides, the result in test [6], in test [7], in test [2] and in test [3] was Active. For the same molecule, the inhibition entry in test [1] is “Active”.
As to `O=C(O)CCCC[C@@H]1SC[C@@H]2NC(=O)N[C@@H]21`, the outcome in [2] and in test [3] was inactive.
As for `COC(=O)[C@H]1[C@@H](O)[C@@]2(O)c3c(OC)cc(OC)cc3O[C@@]2(c2ccc(OC)cc2)[C@@H]1c1ccccc1`, the inhibition result in test [1] was “Active”. Further, the outcome in test [2] and in test [3] was Active.
On to `COc1ccc([C@@]23Oc4cc(O[C@@H]5O[C@@H]([C@@H](O)CO)CO[C@H]5OC)cc(OC)c4[C@]2(O)[C@H](O)[C@H](C(=O)NCc2cn(CCCOCCOCCOCCCNC(=O)CCCC[C@@H]4SC[C@@H]5NC(=O)N[C@@H]54)nn2)[C@H]3c2ccccc2)cc1`, for which the result in test [4], in test [5], in test [8] and in [9] was inactive. Further, the result in test [6], in test [7], in test [2] and in test [3] was Active.
In the case of `COc1ccc([C@@]23Oc4cc(OC)cc(OC)c4[C@]2(O)[C@H](O)[C@H](C(=O)N(C)C)[C@H]3c2ccccc2)cc1`, the outcome in test [2] and in [3] was Active.
Regarding `COc1ccc([C@@]23Oc4cc(OC)cc(OC)c4[C@]2(O)[C@H](O)[C@H](C(=O)O)[C@H]3c2ccccc2)cc1`, the inhibition result in test [1] is “Active”.
